Experimental data from patent publication US7973051B2 (Hoffman-La Roche Inc., priority 2007, dated 2011).

What follows are compounds tested against T1, human liver FBPase (Homo sapiens, UniProt P09467) (assay: FBPase assay: inorganic phosphate release (malachite green)). Conditions: recombinant human liver FBPase, 50 μM fructose-1,6-bisphosphate, read-out at 620 nm.
T1 construct: made in house; host or cells: E. coli
T1 sequence (P09467 2-338 limits assumed): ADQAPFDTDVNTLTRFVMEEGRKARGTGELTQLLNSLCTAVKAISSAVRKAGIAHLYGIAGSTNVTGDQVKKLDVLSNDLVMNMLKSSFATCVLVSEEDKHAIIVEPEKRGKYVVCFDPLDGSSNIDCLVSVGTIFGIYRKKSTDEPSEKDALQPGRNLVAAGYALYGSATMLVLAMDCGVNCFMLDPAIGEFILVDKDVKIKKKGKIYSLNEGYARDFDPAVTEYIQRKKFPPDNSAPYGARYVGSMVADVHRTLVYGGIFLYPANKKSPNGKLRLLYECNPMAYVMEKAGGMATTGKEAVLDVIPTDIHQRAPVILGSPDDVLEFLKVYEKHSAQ
Assay type: biochemical
Experimental: The following tests were carried out for evaluating the inhibitory activity of the compounds of the present invention against human liver FBPase (Swissprot Data base reference P09467, entry F16P_HUMAN).
Human liver FBPase cDNA (NM_000507) was purchased from Origene Technologies, Inc, subcloned in a vector for expression in E. Coli., and sequenced. Recombinant human liver FBPase (hlFBPase) was purified according to the following protocol that uses heat denaturation similarly to that described by El-Maghrabi et. al. [El-Maghrabi, M. R. et al. “Isolation of a human liver fructose-1,6-bisphosphatase cDNA and expression of the protein in Escherichia coli.” J Biol Chem 268:9466-9472, 1993.]. Briefly, E. coli cells, transiently expressing very high levels of soluble and active human liver FBPase, were suspended in 20 mM Tris-HCl pH 7.5, 1 mM EDTA, 1 mM DTT and were lysed by French press. The soluble extract was heat denatured at 65° C. for 5 min, and insoluble, denatured proteins were removed by centrifugation. The extract was then applied to a BioRad Macro-Prep High Q column equilibrated with 20 mM Tris-HCl pH 7.5, 1 mM EDTA, 1 mM DTT and the flow-through (containing FBPase activity) was collected and applied to a BioRad Macro-Prep HS column equilibrated with 20 mM HEPES pH 7.2, 1 mM DTT. A gradient of increasing NaCl concentration was then applied to the HS column and fractions were collected. Fractions containing active FBPase were pooled and further purified by size exclusion chromatography on a Sephacryl S200 column equilibrated in 20 mM Tris-HCl pH 7.5, 150 mM NaCl, 1 mM EDTA, 1 mM DTT. Purity of the enzyme preparation was >90% as assessed by Mass spectrometry.
Recombinant human liver FBPase (hlFBPase) activity was assayed through measuring the inorganic phosphate release that results from the hydrolysis of Fructose-1,6-bisphosphate by the enzyme. As described by Baykov A. A. et al. in [Baykov A. A et al., “Malachite Green procedure for orthophosphate determination and its use in alkaline phosphatase-based enzyme immunoassays”. Anal. Biochem., 171:266-270, 1988], inorganic phosphate can be readily quantified by spectrophotometry at 620 nm after complexation with ammonium molybdate/malachite green reagent. Enzymatic reaction was carried out with modifications of the procedure described by Wright S. W. et al. [Wright S. W. et al., “Anilinoquinazoline inhibitors of Fructose-1,6-bisphosphatase bind to a novel allosteric site: synthesis, in vitro characterization, and X-ray crystallography”. J. Med. Chem. 45:3865-3877, 2002]. Specifically, the reaction was carried out in 96 well plates in a final volume of 100 μl in the presence or in the absence of allosteric inhibitors. Reaction was started adding 25 ng of hlFBPase to the reaction mixture containing 50 mM HEPES-KOH buffer pH 7.2, 2 mM MgCl2, 2 mM EDTA, 1 mM DTT, 50 μM fructose-1,6-bisphosphate and 1% DMSO. After 50 minutes incubation at room temperature, the phosphate released was allowed to form a colored complex for 10 min by adding 150 μl of ammonium molybdate/malachite green reagent containing 0.03% malachite green, 0.2% ammonium molybdate, 0.05% Triton X-100 and 0.7 M H2SO4 in water that was stirred for 30 min at room temperature and filtered through 0.2 μm filter. Under these conditions, the assay was linear with time and able to detect FBPase inhibition after spectrophotometric read-out at 620 nm.

Row | SMILES | IC50 [nM]
1 | Cc1ccc2sc(S(=O)(=O)NC(=O)Nc3ncc(Br)s3)cc2c1 [Example 1, N-[(5-Bromo-1,3-thiazol-2-yl)carbamoyl]-5-methyl-1-benzothiophene-2-sulfonamide] | 89
2 | Cc1c(S(=O)(=O)NC(=O)Nc2ncc(Br)s2)sc2ccc(F)cc12 [Example 3, N-[(5-Bromo-1,3-thiazol-2-yl)carbamoyl]-5-fluoro-3-methyl-1-benzothiophene-2-sulfonamide] | 2730
3 | Cc1c(S(=O)(=O)NC(=O)Nc2ncc(Br)s2)sc2ccc(Br)cc12 [Example 5, 5-Bromo-N-[(5-bromo-1,3-thiazol-2-yl)carbamoyl]-3-methyl-1-benzothiophene-2-sulfonamide] | 1470
4 | O=C(Nc1ncc(Br)s1)NS(=O)(=O)c1cc2c(s1)CCOC2 [Example 6, N-[(5-Bromo-1,3-thiazol-2-yl)carbamoyl]-6,7-dihydro-4H-thieno[3,2-c]pyran-2-sulfonamide] | 528
5 | COc1ccc2cc(S(=O)(=O)NC(=O)Nc3ncc(Br)s3)sc2c1 [Example 9, N-[(5-Bromo-1,3-thiazol-2-yl)carbamoyl]-6-methoxy-1-benzothiophene-2-sulfonamide] | 88
6 | COC(=O)c1ccc2scc(S(=O)(=O)NC(=O)Nc3ncc(Br)s3)c2c1 [Example 10, Methyl-3-({[(5-bromo-1,3-thiazol-2-yl)carbamoyl]amino}sulfonyl)-1-benzothiophene-5-carboxylate] | 446
7 | O=C(Nc1ncc(Br)s1)NS(=O)(=O)c1csc2ccc(Cl)cc12 [Example 12, N-[(5-Bromo-1,3-thiazol-2-yl)carbamoyl]-5-chloro-1-benzothiophene-3-sulfonamide] | 370
8 | O=C(Nc1ncc(Br)s1)NS(=O)(=O)c1cc2cc(Cl)ccc2s1 [Example 13, N-[(5-Bromo-1,3-thiazol-2-yl)carbamoyl]-5-chloro-1-benzothiophene-2-sulfonamide] | 111
9 | Cc1cccc2cc(S(=O)(=O)NC(=O)Nc3ncc(Br)s3)sc12 [Example 14, N-[(5-Bromo-1,3-thiazol-2-yl)carbamoyl]-7-methyl-1-benzothiophene-2-sulfonamide] | 161
10 | COc1ccc2cc(S(=O)(=O)NC(=O)Nc3ncc(Br)s3)sc2c1Br [Example 15, 7-Bromo-N-[(5-bromo-1,3-thiazol-2-yl)carbamoyl]-6-methoxy-1-benzothiophene-2-sulfonamide] | 141
11 | Cc1noc(C)c1-c1ccc2sc(S(=O)(=O)NC(=O)Nc3ncc(Br)s3)cc2c1 [Example 16, N-[(5-bromo-1,3-thiazol-2-yl)carbamoyl]-5-(3,5-dimethylisoxazol-4-yl)-1-benzothiophene-2-sulfonamide] | 830
12 | COc1ccc2sc(S(=O)(=O)NC(=O)Nc3ncc(Br)s3)cc2c1 [Example 17, N-[(5-Bromo-1,3-thiazol-2-yl)carbamoyl]-5-methoxy-1-benzothiophene-2-sulfonamide] | 167
13 | O=C(Nc1ncc(Br)s1)NS(=O)(=O)c1csc2c(Cl)cccc12 [Example 18, N-[(5-Bromo-1,3-thiazol-2-yl)carbamoyl]-7-chloro-1-benzothiophene-3-sulfonamide] | 208
14 | O=C(Nc1ncc(Br)s1)NS(=O)(=O)c1cc2cccc(Cl)c2s1 [Example 19, N-[(5-Bromo-1,3-thiazol-2-yl)carbamoyl]-7-chloro-1-benzothiophene-2-sulfonamide] | 268
15 | Cc1noc(C)c1-c1cccc2cc(S(=O)(=O)NC(=O)Nc3ncc(Br)s3)sc12 [Example 21, N-[(5-Bromo-1,3-thiazol-2-yl)carbamoyl]-7-(3,5-dimethylisoxazol-4-yl)-1-benzothiophene-2-sulfonamide] | 447
16 | O=C(Nc1ncc(Br)s1)NS(=O)(=O)c1cc2cccc(-c3ccncc3)c2s1 [Example 22, N-[(5-Bromo-1,3-thiazol-2-yl)carbamoyl]-7-pyridin-4-yl-1-benzothiophene-2-sulfonamide] | 440

Continued, values first:

Row | IC50 [nM] | SMILES
17 | 434 | O=C(Nc1ncc(Br)s1)NS(=O)(=O)c1cc2ccccc2s1 [Example 2, N-[(5-Bromo-1,3-thiazol-2-yl)carbamoyl]-1-benzothiophene-2-sulfonamide]
18 | 212 | O=C(Nc1ncc(Br)s1)NS(=O)(=O)c1csc2ccccc12 [Example 4, N-[(5-Bromo-1,3-thiazol-2-yl)carbamoyl]-1-benzothiophene-3-sulfonamide]
19 | 122 | COc1ccc2scc(S(=O)(=O)NC(=O)Nc3ncc(Br)s3)c2c1 [Example 7, N-[(5-Bromo-1,3-thiazol-2-yl)carbamoyl]-5-methoxy-1-benzothiophene-3-sulfonamide]
20 | 1100 | Cn1c(S(=O)(=O)NC(=O)Nc2ncc(Br)s2)cc2ccccc21 [Example 8, N-[(5-Bromo-1,3-thiazol-2-yl)carbamoyl]-1-methyl-1H-indole-2-sulfonamide]
21 | 624 | Cc1ccc2scc(S(=O)(=O)NC(=O)Nc3ncc(Br)s3)c2c1 [Example 11, N-[(5-Bromo-1,3-thiazol-2-yl)carbamoyl]-5-methyl-1-benzothiophene-3-sulfonamide]
22 | 134 | O=C(Nc1ncc(Br)s1)NS(=O)(=O)c1cc2ccccc2[nH]1 [Example 20, N-[(5-Bromo-1,3-thiazol-2-yl)carbamoyl]-1H-indole-2-sulfonamide]
23 | 385 | Cn1cc(S(=O)(=O)NC(=O)Nc2ncc(Br)s2)c2ccccc21 [Example 23, N-[(5-Bromo-1,3-thiazol-2-yl)carbamoyl]-1-methyl-1H-indole-3-sulfonamide]
24 | 683 | Cn1cc(S(=O)(=O)NC(=O)Nc2ncc(Br)s2)c2cc(OCc3ccccc3)ccc21 [Example 24, 5-(Benzyloxy)-N-[(5-bromo-1,3-thiazol-2-yl)carbamoyl]-1-methyl-1H-indole-3-sulfonamide]
25 | 731 | COC(=O)c1ccc2c(c1)c(S(=O)(=O)NC(=O)Nc1ncc(Br)s1)cn2C [Example 25, Methyl 3-({[(5-bromo-1,3-thiazol-2-yl)carbamoyl]amino}sulfonyl)-1-methyl-1H-indole-5-carboxylate]
26 | 341 | Cn1cc(S(=O)(=O)NC(=O)Nc2ncc(Br)s2)c2cc(F)ccc21 [Example 26, N-[(5-Bromo-1,3-thiazol-2-yl)carbamoyl]-5-fluoro-1-methyl-1H-indole-3-sulfonamide]
27 | 450 | COC(=O)c1ccc2c(S(=O)(=O)NC(=O)Nc3ncc(Br)s3)cn(C)c2c1 [Example 27, Methyl 3-({[(5-bromo-1,3-thiazol-2-yl)carbamoyl]amino}sulfonyl)-1-methyl-1H-indole-6-carboxylate]
28 | 363 | Cn1cc(S(=O)(=O)NC(=O)Nc2ncc(Br)s2)c2ccc(OCc3ccccc3)cc21 [Example 28, 6-(Benzyloxy)-N-[(5-bromo-1,3-thiazol-2-yl)carbamoyl]-1-methyl-1H-indole-3-sulfonamide]
29 | 740 | Cn1cc(S(=O)(=O)NC(=O)Nc2ncc(Br)s2)c2ccc(C#N)cc21 [Example 29, N-[(5-Bromo-1,3-thiazol-2-yl)carbamoyl]-6-cyano-1-methyl-1H-indole-3-sulfonamide]
30 | 523 | Cn1cc(S(=O)(=O)NC(=O)Nc2ncc(Br)s2)c2ccc(S(C)(=O)=O)cc21 [Example 30, N-[(5-Bromo-1,3-thiazol-2-yl)carbamoyl]-1-methyl-6-(methylsulfonyl)-1H-indole-3-sulfonamide]
